Active and inactive are the calls of the source. The rule behind the calls is not given here.
Columns and labels:
Format in all cases: functional, cell-based
SF-295 = assay: Cytotoxicity against human SF295 cells after 4 hrs by MTT assay; details: SF-295, 4 h
HL-60 = assay: Cytotoxicity against human HL60 cells after 4 hrs by MTT assay; details: HL-60, 4 h
DU-145 = assay: Cytotoxicity against human DU145 cells after 4 hrs by MTT assay; details: DU-145, 4 h
OVCAR-5 = assay: Cytotoxicity against human OVCAR5 cells after 4 hrs by MTT assay; details: OVCAR-5, 4 h
SK-OV-3 = assay: Cytotoxicity against human SKOV3 cells after 4 hrs by MTT assay; details: SK-OV-3, 4 h
RXF 393 = assay: Cytotoxicity against human RXF393 cells after 4 hrs by MTT assay; details: RXF 393, 4 h
Malme-3M = assay: Cytotoxicity against human MALME-3M cells after 4 hrs by MTT assay
NCI-H23 = assay: Cytotoxicity against human NCI-H23 cells after 4 hrs by MTT assay; details: NCI-H23, 4 h
HT-29 = assay: Cytotoxicity against human HT-29 cells after 4 hrs by MTT assay; details: HT-29, 4 h
MOLT-4 = assay: Cytotoxicity against human MOLT4 cells after 4 hrs by MTT assay; details: MOLT-4, 4 h
SR = assay: Cytotoxicity against human SR cells after 4 hrs by MTT assay
UO-31 = assay: Cytotoxicity against human UO31 cells after 4 hrs by MTT assay; details: UO-31, 4 h
[1] = Cytotoxicity against human […] cells after 4 hrs by MTT assay
TK-10 = assay: Cytotoxicity against human TK10 cells after 4 hrs by MTT assay; details: TK-10, 4 h
OVCAR-4 = assay: Cytotoxicity against human OVCAR4 cells after 4 hrs by MTT assay; details: OVCAR-4, 4 h
CCRF-CEM = assay: Cytotoxicity against human CCRF-CEM cells after 4 hrs by MTT assay
T47D = assay: Cytotoxicity against human T47D cells after 4 hrs by MTT assay
A498 = assay: Cytotoxicity against human A498 cells after 4 hrs by MTT assay; details: A498, 4 h
U-251 = assay: Cytotoxicity against human U251 cells after 4 hrs by MTT assay; details: U-251, 4 h
K562 = assay: Cytotoxicity against human K562 cells after 4 hrs by MTT assay; details: K562, 4 h
SNB-75 = assay: Cytotoxicity against human SNB75 cells after 4 hrs by MTT assay; details: SNB-75, 4 h
NCI-H522 = assay: Cytotoxicity against human NCI-H522 cells after 4 hrs by MTT assay; details: NCI-H522, 4 h
UACC-257 = assay: Cytotoxicity against human UACC257 cells after 4 hrs by MTT assay; details: UACC-257, 4 h
HCC 2998 = assay: Cytotoxicity against human HCC2998 cells after 4 hrs by MTT assay; details: HCC 2998, 4 h
HOP-92 = assay: Cytotoxicity against human HOP92 cells after 4 hrs by MTT assay; details: HOP-92, 4 h
Hs-578T = assay: Cytotoxicity against human Hs578T cells after 4 hrs by MTT assay
SW-620 = assay: Cytotoxicity against human SW620 cells after 4 hrs by MTT assay; details: SW-620, 4 h
Ramos = assay: Induction of apoptosis in human Ramos cells assessed as disruption of mitochondrial potential after 1 hr by TMRE based flow cytometry
SN12C = assay: Cytotoxicity against human SN12C cells after 4 hrs by MTT assay
MDA-MB-435 = assay: Cytotoxicity against human MDA-MB-435 cells after 4 hrs by MTT assay; details: MDA-MB-435, 4 h
HCT-116 = assay: Cytotoxicity against human HCT116 cells after 4 hrs by MTT assay; details: HCT-116, 4 h
UACC-62 = assay: Cytotoxicity against human UACC62 cells after 4 hrs by MTT assay; details: UACC-62, 4 h
MDA-MB-231 = assay: Cytotoxicity against human MDA-MB-231 cells after 4 hrs by MTT assay; details: MDA-MB-231, 4 h
MCF7 = assay: Cytotoxicity against human MCF7 cells after 4 hrs by MTT assay; details: MCF7, 4 h
OVCAR-3 = assay: Cytotoxicity against human OVCAR3 cells after 4 hrs by MTT assay; details: OVCAR-3, 4 h
EKVX = assay: Cytotoxicity against human EKVX cells after 4 hrs by MTT assay
[2] = read-out: LC50 (the source's name)

SMILES: NCCNC(=O)C(CN)(Cc1ccc2ccccc2c1)Cc1ccc2ccccc2c1
- IC50 (SF-295): 2.51 µM
- TGI (SF-295): 2.69 µM
- CC50 (SF-295; [2]): 5.75 µM
- IC50 (HL-60): 0.48 µM
- TGI (HL-60): 1.38 µM
- IC50 (DU-145): 2.57 µM
- TGI (DU-145): 2.82 µM
- CC50 (DU-145; [2]): 5.37 µM
- IC50 (OVCAR-5): 2.95 µM
- TGI (OVCAR-5): 3.02 µM
- CC50 (OVCAR-5; [2]): 5.75 µM
- IC50 (SK-OV-3): 3.02 µM
- TGI (SK-OV-3): 3.02 µM
- CC50 (SK-OV-3; [2]): 5.5 µM
- IC50 (RXF 393): 2.69 µM
- TGI (RXF 393): 2.69 µM
- CC50 (RXF 393; [2]): 5.5 µM
- IC50 (Malme-3M): 3.89 µM
- TGI (Malme-3M): 3.8 µM
- CC50 (Malme-3M; [2]): 7.24 µM
- IC50 (NCI-H23): 3.09 µM
- TGI (NCI-H23): 3.24 µM
- CC50 (NCI-H23; [2]): 6.31 µM
- IC50 (HT-29): 0.41 µM
- TGI (HT-29): 1.02 µM
- CC50 (HT-29; [2]): 4.07 µM
- IC50 (MOLT-4): 1.41 µM
- TGI (MOLT-4): 2.69 µM
- IC50 (SR): 0.35 µM
- TGI (SR): 0.62 µM
- IC50 (UO-31): 2.95 µM
- TGI (UO-31): 2.95 µM
- CC50 (UO-31; [2]): 6.03 µM
- IC50 [1]: 3.63 µM
- TGI [1]: 4.57 µM
- IC50 (TK-10): 3.09 µM
- TGI (TK-10): 3.16 µM
- CC50 (TK-10; [2]): 6.03 µM
- IC50 (OVCAR-4): 2.82 µM
- TGI (OVCAR-4): 2.82 µM
- CC50 (OVCAR-4; [2]): 5.37 µM
- IC50 (CCRF-CEM): 2.24 µM
- TGI (CCRF-CEM): 3.39 µM
- CC50 (CCRF-CEM; [2]): 9.12 µM
- IC50 (T47D): 3.8 µM
- TGI (T47D): 3.39 µM
- CC50 (T47D; [2]): 7.59 µM
- IC50 (A498): 2.82 µM
- TGI (A498): 2.34 µM
- CC50 (A498; [2]): 5.01 µM
- IC50 (U-251): 1.48 µM
- TGI (U-251): 2.14 µM
- CC50 (U-251; [2]): 4.68 µM
- IC50 (K562): 0.32 µM
- TGI (K562): 0.62 µM
- IC50 (SNB-75): 2.75 µM
- TGI (SNB-75): 2.69 µM
- CC50 (SNB-75; [2]): 5.25 µM
- IC50 (NCI-H522): 3.09 µM
- TGI (NCI-H522): 3.24 µM
- CC50 (NCI-H522; [2]): 6.46 µM
- IC50 (UACC-257): 3.39 µM
- TGI (UACC-257): 3.39 µM
- CC50 (UACC-257; [2]): 5.89 µM
- IC50 (HCC 2998): 0.59 µM
- TGI (HCC 2998): 1.26 µM
- CC50 (HCC 2998; [2]): 3.98 µM
- IC50 (HOP-92): 3.72 µM
- TGI (HOP-92): 3.47 µM
- CC50 (HOP-92; [2]): 7.24 µM
- IC50 (Hs-578T): 3.63 µM
- TGI (Hs-578T): 3.47 µM
- CC50 (Hs-578T; [2]): 7.94 µM
- IC50 (SW-620): 0.35 µM
- TGI (SW-620): 0.83 µM
- CC50 (SW-620; [2]): 3.39 µM
- Activity (Ramos): Active
- IC50 (SN12C): 3.24 µM
- TGI (SN12C): 3.31 µM
- CC50 (SN12C; [2]): 6.17 µM
- IC50 (MDA-MB-435): 1.02 µM
- TGI (MDA-MB-435): 2 µM
- CC50 (MDA-MB-435; [2]): 5.62 µM
- IC50 (HCT-116): 0.65 µM
- TGI (HCT-116): 1.74 µM
- CC50 (HCT-116; [2]): 4.37 µM
- IC50 (UACC-62): 3.31 µM
- TGI (UACC-62): 3.31 µM
- CC50 (UACC-62; [2]): 5.75 µM
- IC50 (MDA-MB-231): 3.02 µM
- TGI (MDA-MB-231): 3.09 µM
- CC50 (MDA-MB-231; [2]): 6.03 µM
- IC50 (MCF7): 1.35 µM
- TGI (MCF7): 2.24 µM
- CC50 (MCF7; [2]): 5.5 µM
- IC50 (OVCAR-3): 2.82 µM
- TGI (OVCAR-3): 2.88 µM
- CC50 (OVCAR-3; [2]): 5.62 µM
- IC50 (EKVX): 2.69 µM
- TGI (EKVX): 2.88 µM
- CC50 (EKVX; [2]): 6.17 µM
